{"source": "paper PMC3855799", "about": "(PLoS ONE, 2013)", "note": "Several values for one entry are separate records, joined by “and”; a condition that tells them apart may be missing. Equal values may be shown once.", "data": [{"molecular_target": "hNav1.7 alpha subunit (Homo sapiens, UniProt Q15858)", "sequence (Q15858 1-1977 isoform Q15858-3)": "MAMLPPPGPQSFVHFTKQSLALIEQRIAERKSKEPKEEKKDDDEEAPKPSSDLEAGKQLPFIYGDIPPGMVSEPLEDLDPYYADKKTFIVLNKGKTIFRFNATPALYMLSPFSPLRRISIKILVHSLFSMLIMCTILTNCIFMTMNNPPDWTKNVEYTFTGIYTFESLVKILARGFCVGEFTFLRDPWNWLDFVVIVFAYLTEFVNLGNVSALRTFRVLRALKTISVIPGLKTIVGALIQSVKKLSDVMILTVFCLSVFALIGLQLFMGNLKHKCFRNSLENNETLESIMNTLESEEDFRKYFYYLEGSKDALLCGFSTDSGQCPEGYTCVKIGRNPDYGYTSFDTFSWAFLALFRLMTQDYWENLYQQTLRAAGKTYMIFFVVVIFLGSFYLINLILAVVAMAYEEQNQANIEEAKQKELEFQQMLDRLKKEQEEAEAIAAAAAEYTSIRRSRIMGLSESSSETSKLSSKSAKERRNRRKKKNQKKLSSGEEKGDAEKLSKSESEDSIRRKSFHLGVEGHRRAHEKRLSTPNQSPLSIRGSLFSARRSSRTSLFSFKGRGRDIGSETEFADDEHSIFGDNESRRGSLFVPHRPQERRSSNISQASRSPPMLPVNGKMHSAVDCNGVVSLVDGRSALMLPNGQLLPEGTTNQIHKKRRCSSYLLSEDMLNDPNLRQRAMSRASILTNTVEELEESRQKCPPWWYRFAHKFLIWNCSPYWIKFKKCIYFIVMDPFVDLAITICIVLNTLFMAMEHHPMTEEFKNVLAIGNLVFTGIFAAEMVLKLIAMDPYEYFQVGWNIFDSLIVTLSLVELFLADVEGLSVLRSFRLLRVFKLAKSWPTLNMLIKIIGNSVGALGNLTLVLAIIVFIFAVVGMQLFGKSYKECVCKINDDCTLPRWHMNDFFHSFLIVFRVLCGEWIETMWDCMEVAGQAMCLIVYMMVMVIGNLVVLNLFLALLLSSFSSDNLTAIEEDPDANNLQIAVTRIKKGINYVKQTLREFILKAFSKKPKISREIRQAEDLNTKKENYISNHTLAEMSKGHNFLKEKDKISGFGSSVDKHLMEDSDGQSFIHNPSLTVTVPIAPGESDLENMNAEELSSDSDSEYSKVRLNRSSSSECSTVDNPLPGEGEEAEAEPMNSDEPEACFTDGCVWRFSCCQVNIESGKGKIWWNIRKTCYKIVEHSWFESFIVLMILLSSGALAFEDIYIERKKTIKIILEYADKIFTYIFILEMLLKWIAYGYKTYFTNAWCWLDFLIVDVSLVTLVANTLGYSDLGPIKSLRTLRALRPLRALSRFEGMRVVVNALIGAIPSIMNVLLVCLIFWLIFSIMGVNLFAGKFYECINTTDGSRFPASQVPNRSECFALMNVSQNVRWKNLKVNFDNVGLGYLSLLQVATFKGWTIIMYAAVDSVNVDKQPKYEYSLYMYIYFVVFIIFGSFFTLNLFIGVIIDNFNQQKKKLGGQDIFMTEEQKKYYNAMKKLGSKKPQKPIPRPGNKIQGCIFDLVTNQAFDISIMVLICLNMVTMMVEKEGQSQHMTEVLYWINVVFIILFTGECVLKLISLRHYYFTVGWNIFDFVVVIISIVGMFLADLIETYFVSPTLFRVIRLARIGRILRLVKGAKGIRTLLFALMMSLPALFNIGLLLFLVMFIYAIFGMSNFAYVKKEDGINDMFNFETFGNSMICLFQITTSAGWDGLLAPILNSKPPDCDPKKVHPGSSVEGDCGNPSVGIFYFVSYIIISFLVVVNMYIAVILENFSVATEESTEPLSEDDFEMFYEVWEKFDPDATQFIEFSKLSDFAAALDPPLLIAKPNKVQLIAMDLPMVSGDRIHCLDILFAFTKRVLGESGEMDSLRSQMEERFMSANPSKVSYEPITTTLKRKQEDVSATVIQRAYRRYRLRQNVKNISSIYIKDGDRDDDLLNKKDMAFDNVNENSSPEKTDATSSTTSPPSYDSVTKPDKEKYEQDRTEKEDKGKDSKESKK", "assay": "Electrophysiology using Sophion QPatch: inhibition of hNav1.7 currents", "type": "cell-based", "conditions": "QPatch 16X whole cell voltage clamp, hNav1.7 alpha HEK 293; holding -80 mV, -120mV for 100ms, step to 0mV; peak inward current; cumulative doses 100pM to 10µM, 10 minutes per dose; extracellular buffer pH 7.4 + 0.1% BSA; n = 9-11 (given for HwTx-IV(acid)); spread type not stated; read-out: IC50 on Nav1.7", "description": "Electrophysiology using Sophion QPatch^TM\nhNav1.7 alpha HEK 293 cell line (NM_002977.2) was obtained from Millipore and cells were cultured in a 50/50 mix of DMEM and Hams F-12 growth media supplemented with 10% FBS. Cells were passaged by Detachin (Genlantis) treatment (5 minutes), seeded 48-72 hours prior to experiments and used between passage 5 and 10. Cells were harvested at 70% confluency and resuspended by trituration in 8ml of Ex-cell ACF CHO serum free media (Sigma) + 20mM HEPES giving a cell density of 2-3x10^6cells/ml.\nSolutions for electrophysiology: Extracellular solution contained (in mM) NaCl (145), KCl (2), CaCl2 (2), MgCl2 (1), HEPES (10), pH 7.4 with NaOH, osmolarity adjusted to 300 mOsm with sucrose. Intracellular solution contained (in mM), CsF (140), NaCl (10), EGTA (1), HEPES (10), pH 7.2 with CsOH, osmolarity adjusted to 325 mOsm with sucrose.\nSerial dilutions were made in extracellular buffer + 0.1% BSA. Cumulative dose response curves were constructed with doses of 1e-10 to 1e-5M (100pM to 10µM). Each dose was applied for 10 minutes with 3x5µl compound additions spaced 2 seconds apart (Note that complete solution exchange is achieved with volumes of ~2µl).\nNav1.7 currents were measured using the automated electrophysiology platform Qpatch 16X (Sophion) in single hole configuration. […] To measure Nav1.7 currents, membrane potential was held at -80 mV then stepped to -120mV for 100ms to remove fast inactivation, followed by a step to 0mV for 10ms to activate Nav1.7 then returned to -120mV for 100ms. This voltage protocol was repeated at a rate of 0.2Hz with a the membrane potential held at -80mV between sweeps. Data were sampled at 10kHz and filtered using a 4 pole Bessel filter at 3kHz. P/N leak subtraction was utilized with a leak sweep of -10%. Series resistance was compensated 75% as standard. Liquid junction potentials were not corrected.\nPeak inward current at 0mV was normalised to cell capacitance (pA/pF). […]", "values": [{"smiles": "CC[C@H](C)[C@H](NC(=O)[C@H](CCC(N)=O)NC(=O)[C@H](Cc1ccc(O)cc1)NC(=O)[C@H](CCCCN)NC(=O)[C@@H]1CSSC[C@@H]2NC(=O)[C@H](CCC(N)=O)NC(=O)[C@H](CC(=O)O)NC(=O)[C@H](CC(N)=O)NC(=O)[C@H](CO)NC(=O)[C@@H]3CCCN3C(=O)[C@H](CC(N)=O)NC(=O)[C@@H]3CSSC[C@H](NC(=O)[C@H](C(C)C)NC(=O)[C@H](CC(C)C)NC(=O)[C@H](CCCCN)NC(=O)[C@H](CO)NC(=O)[C@H](CO)NC(=O)[C@H](CCCCN)NC(=O)[C@H](CSSC[C@H](NC(=O)[C@@H](N)CCC(=O)O)C(=O)N[C@@H](CC(C)C)C(=O)N[C@@H](CCC(=O)O)C(=O)N[C@@H]([C@@H](C)CC)C(=O)N[C@@H](Cc4ccccc4)C(=O)N[C@@H](CCCCN)C(=O)N[C@@H](C)C(=O)N3)NC2=O)C(=O)N[C@@H](CO)C(=O)N[C@@H](CCCNC(=N)N)C(=O)N[C@@H](CCCCN)C(=O)N[C@@H]([C@@H](C)O)C(=O)N[C@@H](CCCNC(=N)N)C(=O)N[C@@H](Cc2c[nH]c3ccccc23)C(=O)N1)C(=O)NCC(=O)O", "note": "[HwTx-IV^G36(acid)]", "IC50": "0.19 µM and 0.195 µM"}, {"smiles": "CC[C@H](C)[C@H](NC(=O)[C@H](CCC(N)=O)NC(=O)[C@H](Cc1ccc(O)cc1)NC(=O)[C@H](CCCCN)NC(=O)[C@@H]1CSSC[C@@H]2NC(=O)[C@H](CCC(N)=O)NC(=O)[C@H](CC(=O)O)NC(=O)[C@H](CC(N)=O)NC(=O)[C@H](CO)NC(=O)[C@@H]3CCCN3C(=O)[C@H](CC(N)=O)NC(=O)[C@@H]3CSSC[C@H](NC(=O)[C@H](C(C)C)NC(=O)[C@H](CC(C)C)NC(=O)[C@H](CCCCN)NC(=O)[C@H](CO)NC(=O)[C@H](CO)NC(=O)[C@H](CCCCN)NC(=O)[C@H](CSSC[C@H](NC(=O)[C@@H](N)CCC(=O)O)C(=O)N[C@@H](CC(C)C)C(=O)N[C@@H](CCC(=O)O)C(=O)N[C@@H]([C@@H](C)CC)C(=O)N[C@@H](Cc4ccccc4)C(=O)N[C@@H](CCCCN)C(=O)N[C@@H](C)C(=O)N3)NC2=O)C(=O)N[C@@H](CO)C(=O)N[C@@H](CCCNC(=N)N)C(=O)N[C@@H](CCCCN)C(=O)N[C@@H]([C@@H](C)O)C(=O)N[C@@H](CCCNC(=N)N)C(=O)N[C@@H](Cc2c[nH]c3ccccc23)C(=O)N1)C(=O)NCC(N)=O", "note": "[HwTx-IV^G36(amide)]", "IC50": "0.033 ± 0.009 µM"}, {"smiles": "CC[C@H](C)[C@H](NC(=O)[C@H](CCC(N)=O)NC(=O)[C@H](Cc1ccc(O)cc1)NC(=O)[C@H](CCCCN)NC(=O)[C@@H]1CSSC[C@@H]2NC(=O)[C@H](CCC(N)=O)NC(=O)[C@H](CC(=O)O)NC(=O)[C@H](CC(N)=O)NC(=O)[C@H](CO)NC(=O)[C@@H]3CCCN3C(=O)[C@H](CC(N)=O)NC(=O)[C@@H]3CSSC[C@H](NC(=O)[C@H](C(C)C)NC(=O)[C@H](CC(C)C)NC(=O)[C@H](CCCCN)NC(=O)[C@H](CO)NC(=O)[C@H](CO)NC(=O)[C@H](CCCCN)NC(=O)[C@H](CSSC[C@H](NC(=O)[C@@H](N)CCC(=O)O)C(=O)N[C@@H](CC(C)C)C(=O)N[C@@H](CCC(=O)O)C(=O)N[C@@H]([C@@H](C)CC)C(=O)N[C@@H](Cc4ccccc4)C(=O)N[C@@H](CCCCN)C(=O)N[C@@H](C)C(=O)N3)NC2=O)C(=O)N[C@@H](CO)C(=O)N[C@@H](CCCNC(=N)N)C(=O)N[C@@H](CCCCN)C(=O)N[C@@H]([C@@H](C)O)C(=O)N[C@@H](CCCNC(=N)N)C(=O)N[C@@H](Cc2c[nH]c3ccccc23)C(=O)N1)C(=O)O", "note": "[HwTx-IV(acid)]", "IC50": "0.463 to 0.727 µM and 0.727 µM and 0.463 µM"}]}]}
